Values of other authors in US20250258260A1, “MEGLUMINE BASED FORMULATIONS FOR DYNAMIC NUCLEAR POLARIZATION” (THE BOARD OF REGENTS OF THE UNIVERSITY OF TEXAS SYSTEM, priority 2024, published 2025).
Converted amounts (≈) assume the structure as drawn. Where two headings read alike, the source gives them in different places. Values belong to the compound of their own block, whether it stands above or below them.

Legend:
[1] = test system: muscle function; settings: 18 mM in drinking water for at least 30 days
[2] = at 11.7 T using water as solvent

SMILES: CNC[C@H](O)[C@@H](O)[C@H](O)[C@H](O)CO [meglumine]
effect of supplementation [1]: favorable effect on muscle function | solubility in water: up to 1 g/mL

T1 [2]: 29 s
SMILES: O=[13C](O)/C=C/[13C](=O)O [[1,4-^13C2]fumarate]

SMILES: O=C(O)/C=C/C(=O)O [fumaric acid]
solubility in water (at 25° C.): 6000 µg/mL (≈ 51.7 mM)
